Several values for one entry are separate records, joined by “and”; a condition that tells them apart may be missing. Equal values may be shown once. Toxic doses and inconclusive results are not listed. Residues, ends and D or L forms follow the SMILES beside them. *: point of attachment. Trt = c1ccc(C(c2ccccc2)(c2ccccc2)*)cc1; Boc = CC(C)(C)OC(=O)*
Tested on: BDF1 mice, P388 leukemia ip, median survival T/C
Assay: NCI In Vivo Anticancer Drug Screen. Data for tumor model P388 Leukemia (intraperitoneal) in B6D2F1 (BDF1) mice
Details: endpoint: median survival time, higher = longer survival
Procedure, shortened: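 In tumour-bearing mice, survival after compound treatment is set against the vehicle group and given as a quotient.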

[1] = dose: 100.0 mg/kg/injection, schedule: Q04DX003 (ip), vehicle: saline
[2] = dose: 200.0 mg/kg/injection, schedule: Q04DX003 (ip), vehicle: saline
[3] = dose: 400.0 mg/kg/injection, schedule: Q04DX003 (ip), vehicle: saline
[4] = dose: 50.0 mg/kg/injection, schedule: Q01DX009 (ip), vehicle: saline with Tween-80
[5] = dose: 100.0 mg/kg/injection, schedule: Q01DX009 (ip), vehicle: saline with Tween-80
[6] = dose: 200.0 mg/kg/injection, schedule: Q01DX009 (ip), vehicle: saline with Tween-80
[7] = dose: 400.0 mg/kg/injection, schedule: Q01DX009 (ip), vehicle: saline with Tween-80
[8] = dose: 200.0 mg/kg/injection, schedule: Q04DX003 (ip), vehicle: saline with Tween-80

In the case of `IP(c1ccccc1)(c1ccccc1)(c1ccccc1)N1C2CCCCC21` (stereo not drawn), the T/C (dose: 0.07 mg/kg/injection, schedule: Q01DX009 (ip), vehicle: saline) is reported as 104 % of control and 113 % of control, the T/C (dose: 0.15 mg/kg/injection, schedule: Q01DX009 (ip), vehicle: saline) is reported as 150 % of control and 156 % of control and the T/C (dose: 0.23 mg/kg/injection, schedule: Q04DX003 (ip), vehicle: saline) is reported as 109 % of control. For the same compound, the T/C (dose: 0.31 mg/kg/injection, schedule: Q01DX009 (ip), vehicle: saline) was 150 % of control, the T/C (dose: 0.46 mg/kg/injection, schedule: Q04DX003 (ip), vehicle: saline) was 118 % of control and the T/C (dose: 0.6 mg/kg/injection, schedule: Q01DX009 (ip), vehicle: saline) was 166 % of control. The T/C (dose: 0.62 mg/kg/injection, schedule: Q04DX003 (ip), vehicle: saline) was 113 % of control, the T/C (dose: 0.93 mg/kg/injection, schedule: Q04DX003 (ip), vehicle: saline) was 118 % of control and the T/C (dose: 1.2 mg/kg/injection, schedule: Q01DX009 (ip), vehicle: saline) was 156 % of control.
For `CC(C)(C)OC(=O)NCCCCC(NC(=O)CNC(=O)C(CSC(c1ccccc1)(c1ccccc1)c1ccccc1)NC(=O)OC(C)(C)C)C(=O)O` (stereo not drawn) (Boc-Cys(Trt)-Gly-Lys(Boc)-OH; configuration not given here), the T/C (dose: 25.0 mg/kg/injection, schedule: Q04DX003 (ip), vehicle: saline) was 100 % of control, the T/C (dose: 50.0 mg/kg/injection, schedule: Q04DX003 (ip), vehicle: saline) was 104 % of control and the T/C [1] was 104 % of control.
In the case of `O=C1CCCN1C1=CC2=C(CCc3ccccc32)S(=O)(=O)O1`, the T/C [1] is reported as 90 % of control, the T/C [2] is reported as 100 % of control and the T/C [3] is reported as 100 % of control.
For `CC(=O)N1C2=CCCC3CCCCC23c2ccccc21` (stereo not drawn), the T/C [4] was 88 % of control and 109 % of control, the T/C [5] was 102 % of control and 104 % of control and the T/C [6] was 93 % of control. For the same compound, the T/C [7] was 112 % of control.
In the case of `O=C(O)/C=C\C(=O)Nc1ccccc1`, the T/C (dose: 6.25 mg/kg/injection, schedule: Q01DX009 (ip), vehicle: Klucel (hydroxypropylcellulose) (HPC)) is reported as 105 % of control, the T/C (dose: 12.5 mg/kg/injection, schedule: Q01DX009 (ip), vehicle: Klucel (hydroxypropylcellulose) (HPC)) is reported as 94 % of control and the T/C (dose: 25.0 mg/kg/injection, schedule: Q01DX009 (ip), vehicle: Klucel (hydroxypropylcellulose) (HPC)) is reported as 94 % of control. For the same compound, the T/C (dose: 50.0 mg/kg/injection, schedule: Q01DX009 (ip), vehicle: Klucel (hydroxypropylcellulose) (HPC)) was 115 % of control, the T/C (dose: 200.0 mg/kg/injection, schedule: Q01DX009 (ip), vehicle: Klucel (hydroxypropylcellulose) (HPC)) was 86 % of control and the T/C (dose: 400.0 mg/kg/injection, schedule: Q01DX009 (ip), vehicle: Klucel (hydroxypropylcellulose) (HPC)) was 95 % of control.
For `CCOC(=O)Cn1ccc(=O)[nH]c1=O`, the T/C (dose: 75.0 mg/kg/injection, schedule: Q04DX003 (ip), vehicle: saline) was 100 % of control, the T/C (dose: 150.0 mg/kg/injection, schedule: Q04DX003 (ip), vehicle: saline) was 100 % of control and the T/C (dose: 300.0 mg/kg/injection, schedule: Q04DX003 (ip), vehicle: saline) was 100 % of control.
For `Cc1cccc(NS(=O)(=O)c2ccc(Cl)cc2)c1C`, the T/C [1] was 100 % of control, the T/C [2] was 95 % of control and the T/C [3] was 108 % of control.
`O=S(=O)(Nc1cc(S(=O)(=O)c2ccccc2)c(O)c2ccccc12)c1ccccc1` was tested, and the T/C (dose: 75.0 mg/kg/injection, schedule: Q01DX001 (ip), vehicle: saline with Tween-80) was 90 % of control, the T/C (dose: 150.0 mg/kg/injection, schedule: Q01DX001 (ip), vehicle: saline with Tween-80) was 90 % of control and the T/C (dose: 300.0 mg/kg/injection, schedule: Q01DX001 (ip), vehicle: saline with Tween-80) was 100 % of control.
`COc1ccc(Cc2cc3cc(OC)c(OC)cc3cn2)cc1OC` was tested, and the T/C (dose: 100.0 mg/kg/injection, schedule: Q04DX003 (ip), vehicle: saline with Tween-80) was 110 % of control, the T/C [6] was 103 % of control and the T/C [8] was 112 % of control. The T/C (dose: 300.0 mg/kg/injection, schedule: Q01DX009 (ip), vehicle: saline with Tween-80) was 114 % of control, the T/C [7] was 103 % of control and the T/C (dose: 400.0 mg/kg/injection, schedule: Q04DX003 (ip), vehicle: saline with Tween-80) was 116 % of control. The T/C (dose: 500.0 mg/kg/injection, schedule: Q01DX009 (ip), vehicle: saline with Tween-80) was 103 % of control.
With `CCCNC1=C(C)C(=O)C2=C(C1=O)[C@H](COC(N)=O)[C@]1(OC)[C@@H]3N[C@@H]3CN21` the T/C (dose: 2.0 mg/kg/injection, schedule: Q01DX009 (ip), vehicle: saline sonified) was 205 % of control, the T/C (dose: 2.0 mg/kg/injection, schedule: Q01DX009 (ip), vehicle: saline) was 180 % of control and the T/C (dose: 3.0 mg/kg/injection, schedule: Q01DX009 (ip), vehicle: saline) was 200 % of control. The T/C (dose: 3.13 mg/kg/injection, schedule: Q01DX009 (ip), vehicle: saline sonified) was 150 % of control.
`NC(=O)CC(N)C(=O)O` (stereo not drawn) was tested, and the T/C (dose: 200.0 mg/kg/injection, schedule: Q01DX009 (ip), vehicle: saline) was 100 % of control, the T/C (dose: 200.0 mg/kg/injection, schedule: Q01DX010 (ip), vehicle: other) was 110 % of control and the T/C (dose: 400.0 mg/kg/injection, schedule: Q01DX009 (ip), vehicle: saline) was 100 % of control. The T/C (dose: 400.0 mg/kg/injection, schedule: Q01DX010 (ip), vehicle: other) was 120 % of control, the T/C (dose: 400.0 mg/kg/injection, schedule: Q01DX010 (ip), vehicle: saline with Tween-80) was 86 % of control and the T/C (dose: 800.0 mg/kg/injection, schedule: Q01DX009 (ip), vehicle: saline) was 110 % of control. For the same compound, the T/C (dose: 800.0 mg/kg/injection, schedule: Q01DX010 (ip), vehicle: other) was 100 % of control, the T/C (dose: 1600.0 mg/kg/injection, schedule: Q01DX009 (ip), vehicle: saline) was 115 % of control and the T/C (dose: 1600.0 mg/kg/injection, schedule: Q01DX010 (ip), vehicle: other) was 115 % of control. The T/C (dose: 1600.0 mg/kg/injection, schedule: Q01DX010 (ip), vehicle: saline with Tween-80) was 150 % of control.
For `CCCCN(CCCC)CCC(O)c1cc2ccc(C(F)(F)F)cc2c2cc(C(F)(F)F)ccc12` (stereo not drawn), the T/C [4] was 94 % of control, the T/C [5] was 90 % of control and the T/C [6] was 110 % of control.
In the case of `O=c1c2ccccc2[nH]c2cc3c(=O)c4ccccc4[nH]c3cc12`, the T/C [4] is reported as 99 % of control, the T/C [5] is reported as 95 % of control and the T/C [6] is reported as 93 % of control.
`CCNc1nncs1` was tested, and the T/C (dose: 30.0 mg/kg/injection, schedule: Q01DX009 (ip), vehicle: saline) was 116 % of control, the T/C (dose: 38.0 mg/kg/injection, schedule: Q04DX003 (ip), vehicle: saline with Tween-80) was 100 % of control and the T/C (dose: 44.0 mg/kg/injection, schedule: Q01DX009 (ip), vehicle: saline) was 114 % of control. For the same compound, the T/C (dose: 58.0 mg/kg/injection, schedule: Q04DX003 (ip), vehicle: saline with Tween-80) was 100 % of control, the T/C (dose: 88.0 mg/kg/injection, schedule: Q04DX003 (ip), vehicle: saline with Tween-80) was 108 % of control and the T/C (dose: 100.0 mg/kg/injection, schedule: Q01DX009 (ip), vehicle: saline) was 150 % of control and 168 % of control. For the same compound, the T/C [1] was 86 % of control, the T/C (dose: 150.0 mg/kg/injection, schedule: Q01DX009 (ip), vehicle: saline) was 105 % of control and the T/C [8] was 165 % of control. The T/C (dose: 225.0 mg/kg/injection, schedule: Q01DX009 (ip), vehicle: saline) was 95 % of control and the T/C (dose: 300.0 mg/kg/injection, schedule: Q04DX003 (ip), vehicle: saline with Tween-80) was 196 % of control.
With `CN(C)c1ccc(/C=C2\C=Cc3ccccc32)cc1F` the T/C (dose: 44.0 mg/kg/injection, schedule: Q04DX003 (ip), vehicle: saline sonified) was 90 % of control, the T/C (dose: 66.0 mg/kg/injection, schedule: Q04DX003 (ip), vehicle: saline sonified) was 100 % of control and the T/C (dose: 100.0 mg/kg/injection, schedule: Q01DX009 (ip), vehicle: saline sonified) was 104 % of control. The T/C (dose: 100.0 mg/kg/injection, schedule: Q04DX003 (ip), vehicle: saline sonified) was 90 % of control, the T/C (dose: 150.0 mg/kg/injection, schedule: Q04DX003 (ip), vehicle: saline sonified) was 95 % of control and the T/C (dose: 200.0 mg/kg/injection, schedule: Q01DX009 (ip), vehicle: saline sonified) was 100 % of control. The T/C (dose: 200.0 mg/kg/injection, schedule: Q04DX003 (ip), vehicle: saline sonified) was 110 % of control, the T/C (dose: 400.0 mg/kg/injection, schedule: Q01DX009 (ip), vehicle: saline sonified) was 104 % of control and the T/C (dose: 400.0 mg/kg/injection, schedule: Q04DX003 (ip), vehicle: saline sonified) was 120 % of control.
With `CC(=O)Nc1c2sscc-2n(C)c1=O` the T/C (dose: 0.39 mg/kg/injection, schedule: Q01DX009 (ip), vehicle: saline with Tween-80) was 97 % of control and the T/C (dose: 0.78 mg/kg/injection, schedule: Q01DX009 (ip), vehicle: saline with Tween-80) was 104 % of control.
